Measured values taken from US5856347A, “Antibacterial preparation or bactericide comprising 2-aminothiazole derivative and/or salt thereof” (Hisamitsu Pharmaceutical Co., Inc., priority 1994, dated 1999).

Tests used:
Format in all cases: cell-based
[1] = tested on: Staphylococcus epidermidis; assay: Acquisition of tolerance in Staphylococcus epidermidis (serial passages)
Description: (§1) Acquisition of Tolerance in Staphylococcus aureus and Staphylococcus epidermidis
(§2) One platinum loop of each test strain on a slant culture medium was inoculated into 10 ml of a growing medium (Trypto-Soya Broth manufactured by Nussui Pharmaceutical Co., Ltd.) and cultured at 37° C. for 18 to 20 hr. The thus obtained cultures were each diluted to obtain suspensions of about 10^8 cells/ml which were later used as a bacteria suspension for inoculation.
(§3) About 10 mg of compound No. 9 were weighed out and dissolved in such an amount of DMSO as to obtain a solution having a concentration of 12.8 mg/ml, after which the solution so obtained was subjected to stepwise two-fold dilutions with DMSO (12.8 to 0.1 mg/ml).
(§4) Separately, about 400 mg of Gentamicin sulfate (GM) were weighed and dissolved in distilled water to obtain a solution having a concentration of 409.6 mg/ml, after which the solution so obtained was subjected to stepwise two-fold dilutions with distilled water to prepare control medicinal solutions for comparison (409.6 to 0.1 mg/ml).
(§5) Each of the sample solutions thus obtained by the stepwise dilutions was added to a liquid medium (Trypto-Soya Broth manufactured by Nussui Pharmaceutical Co., Ltd.) in an amount of 0.01 volume thereof.
(§6) Each of the bacteria suspensions for inoculation was added to each of the sample-containing liquid media so prepared in an amount of 0.01. volume (about 10^6 cells/ml) of the liquid medium, and the bacteria were cultured at 37° C. for 2 to 4 days. Thereafter, the growth of bacteria was observed.

[2] = tested on: Staphylococcus aureus tolerant to GM; assay: Antibacterial activity against GM-tolerant Staphylococcus aureus; settings: S. aureus tolerant to GM
Description: (§7) Antibacterial Activity Against GM-Sensitive and Tolerant Strains of Staphylococcus aureus and Staphylococcus epidermidis
as §2, with “10^7” for “10^8”
(§8) About 10 mg of compound No. 9 were weighed out and dissolved in such an amount of DMSO as to obtain a solution having a concentration of 10 mg/ml. Separately, about 400 mg of Gentamicin sulfate (GM) were weighed out and dissolved in distilled water to obtain a solution having a concentration of 409.6 mg/ml.
(§9) Each of the sample solutions thus prepared was added to a liquid medium (broth for determination of sensitivity, manufactured by Nussui Pharmaceutical Co., Ltd.) to obtain a liquid medium containing compound No. 9 in a concentration of 128 μg/ml or GM in a concentration of 4096 μg/ml. Further, each sample-containing medium so obtained was subjected to stepwise two-fold dilutions on a microplate with wells each containing […] of the above medium (compound No. 9: 128 to 1 μg/ml, GM: 4096 to 1 μg/ml). […]

[3] = tested on: Staphylococcus epidermidis tolerant to GM; assay: Antibacterial activity against GM-tolerant Staphylococcus epidermidis; settings: S. epidermidis tolerant to GM
Description: as §7
as §2, with “10^7” for “10^8”
as §8, §9

Staphylococcus aureus = assay: Acquisition of tolerance in Staphylococcus aureus (serial passages)
Description: as §1, §2, §3, §4, §5, §6

[4] = tested on: Staphylococcus epidermidis: IFO 12993; assay: Antibacterial activity against Staphylococcus epidermidis: IFO 12993 (MIC); settings: Staphylococcus epidermidis IFO 12993, 37° C., 18 to 20 hr
Description: (§10) Antibacterial Activity Against Gram-positive Bacteria
(§11) One platinum loop (oese) of a test strain on a slant culture medium was inoculated into 10 ml of each growing medium (for aerobic bacteria: Trypto-Soya Broth manufactured by Nussui Pharmaceutical Co., Ltd., for anaerobic bacteria: GAM Broth manufactured by Nussui Pharmaceutical Co., Ltd.) and cultured at. 37° C. for 18 to 20 hr. The cultures thus obtained were each diluted to obtain suspensions of about 10^7 cells/ml which were later used as a bacteria suspension for inoculation.
(§12) About 10 mg of each sample were weighed out and dissolved in such an amount of DMSO (dimethylsulfoxide) as to obtain sample solutions having a concentration of 10 mg/ml.
(§13) The sample solutions thus prepared were each added to each liquid medium (for aerobic bacteria: broth for determination of sensitivity, manufactured by Nussui Pharmaceutical Co., Ltd., for anaerobic bacteria: GAM Broth manufactured by Nussui Pharmaceutical Co., Ltd.) to obtain sample-containing medium solutions having a concentration of 128 μg/ml. Further, the thus obtained solutions were each subjected to progressive or stepwise two-fold dilutions on a microplate with wells each containing […] of the above medium (until various concentrations in a range from 128 down to 0.063 μg/ml were obtained). […]

[5] = tested on: Staphylococcus aureus sensitive to GM; assay: Antibacterial activity against GM-sensitive Staphylococcus aureus; settings: S. aureus sensitive to GM, 37° C., 4 days
Description: as §7
as §2, with “10^7” for “10^8”
as §8, §9

[6] = tested on: Staphylococcus epidermidis sensitive to GM; assay: Antibacterial activity against GM-sensitive Staphylococcus epidermidis; settings: S. epidermidis sensitive to GM, 37° C., 4 days
Description: as §7
as §2, with “10^7” for “10^8”
as §8, §9

[7] = tested on: Staphylococcus aureus: IFO 13276; assay: Bactericidal activity against Staphylococcus aureus: IFO 13276 (MCC); settings: S. aureus IFO 13276, 37° C., 18 to 20 hr, bactericidal (Table 8)
Description: (§14) Bactericidal Activity Against Gram-Positive Bacteria
(§15) One platinum loop of each test strain on a slant culture medium was inoculated into 10 ml of each growing medium (for aerobic bacteria: Trypto-Soya Broth manufactured by Nussui Pharmaceutical Co., Ltd., for anaerobic bacteria: GAM Broth manufactured by Nussui Pharmaceutical Co., Ltd.) and cultured at 37° C. for 18 to 20 hr. The thus obtained cultures were each diluted to obtain suspensions of about 10^7 cells/ml which were later used as a bacteria suspension for inoculation.
(§16) About 10 mg of each sample were weighed out and dissolved in such an amount of DMSO (dimethylsulfoxide) as to obtain solutions having a concentration of 10 mg/ml.
(§17) The sample solutions thus prepared were each added to each liquid medium (for aerobic bacteria: broth for determination of sensitivity, manufactured by Nussui Pharmaceutical Co., Ltd., for anaerobic bacteria: GAM Broth manufactured by Nussui Pharmaceutical Co., Ltd.) to obtain sample-containing medium solutions having a concentration of 128 μg/ml. […]
(§18) 5 μl of each bacteria suspension for inoculation were placed in each of the sample-containing liquid media so prepared, and the bacteria were cultured at 37° C. for 18 to 20 hr. […] The minimum concentrations of the samples, which have been judged to kill bacteria, are expressed as MCC (Minimum Cidal Concentration) in μg/ml. […]

[8] = tested on: Streptococcus pyogenes: IID 698; assay: Antibacterial activity against Streptococcus pyogenes: IID 698 (MIC); settings: Streptococcus pyogenes IID 698, 37° C., 18 to 20 hr
Description: as §10, §11, §12, §13

[9] = tested on: Bacillus subtilis: IFO 3134; assay: Antibacterial activity against Bacillus subtilis: IFO 3134 (MIC); settings: Bacillus subtilis IFO 3134, 37° C., 18 to 20 hr
Description: as §10, §11, §12, §13

[10] = tested on: Propionibacterium acnes: Clinical isolated No. 3; assay: Antibacterial activity against Propionibacterium acnes: Clinical isolated No. 3 (MIC); settings: Propionibacterium acnes clinical isolated No. 3, GAM Broth, 37° C., 18 to 20 hr
Description: as §10, §11, §12, §13

[11] = tested on: Staphylococcus aureus: IFO 13276; assay: Antibacterial activity against Staphylococcus aureus: IFO 13276 (MIC, liquid dilution); settings: S. aureus IFO 13276, 37° C., 18 to 20 hr (Table 2)
Description: as §10, §11, §12, §13

[12] = tested on: Staphylococcus epidermidis: IFO 12993; assay: Bactericidal activity against Staphylococcus epidermidis: IFO 12993 (MCC); settings: S. epidermidis IFO 12993, 37° C., 18 to 20 hr, bactericidal (Table 9)
Description: as §14, §15, §16, §17, §18

[13] = tested on: Propionibacterium acnes: Clinical isolated No. 3; assay: Bactericidal activity against Propionibacterium acnes: Clinical isolated No. 3 (MCC); settings: P. acnes clinical isolated No. 3, 37° C., 18 to 20 hr, bactericidal (Table 9)
Description: as §14, §15, §16, §17, §18

[14] = tested on: Escherichia coli: IFO 3972; assay: Antibacterial activity against Gram-negative bacteria, Escherichia coli: IFO 3972 (MIC)
Description: Antibacterial Activity Against Gram-Negative Bacteria The procedure was performed in the same manner as Experiment Example 1.

[15] = tested on: Streptococcus agalactiae: IID 1624; assay: Antibacterial activity against Streptococcus agalactiae: IID 1624 (MIC); settings: Streptococcus agalactiae IID 1624, 37° C., 18 to 20 hr
Description: as §10, §11, §12, §13

`COc1ccc(-c2nc(NS(=O)(=O)C(F)(F)F)sc2-c2ccccc2)cc1` [compound 9] was tested, and the acquisition of tolerance ([1]; 18 passages) was “did not induce the tolerance until 18 passages”, the “increase in MIC due to passages” value ([1]; 18 passages) was “neither of the strains caused a significant increase in MIC” and the “antibacterial activity and bactericidal activity compared with GM-sensitive strains” value [2] was “equally powerful to those against the strains sensitive to Gentamicin sulfate (GM)”. For the same molecule, the “antibacterial activity and bactericidal activity compared with GM-sensitive strains” value [3] was “equally powerful to those against the strains sensitive to Gentamicin sulfate (GM)”, the acquisition of tolerance (Staphylococcus aureus; 10 passages) was “did not induce bacterial tolerance until 10 passages” and the “increase in MIC due to passages” value (Staphylococcus aureus; 10 passages) was “neither of the strains caused a significant increase in MIC”.
Gentamicin sulfate [GM] was tested, and the “MIC (Minimum Inhibitory Concentration)” value [4] was 0.5 µg/mL, the acquisition of tolerance ([1]; 18 passages) was “highly induced the tolerance” and the MIC after passages ([1]; 18 passages in medium containing GM) was “about 1000 μg/ml”. For the same molecule, the “MIC (Minimum Inhibitory Concentration)” value [5] was 2 µg/mL, the “MIC (Minimum Inhibitory Concentration)” value [6] was 0.5 µg/mL and the “MIC (Minimum Inhibitory Concentration)” value ([2]; 37° C., 4 days) was 2048 µg/mL. For the same molecule, the “MCC (Minimum Cidal Concentration), column head prints MIC” value (shortened to “MCC (Minimum Cidal Concentration)”) [7] was 128 µg/mL, the “MIC (Minimum Inhibitory Concentration)” value [8] was 2 µg/mL and the “MIC (Minimum Inhibitory Concentration)” value [9] was 0.25 µg/mL. For the same molecule, the “MIC (Minimum Inhibitory Concentration)” value [10] was 32 µg/mL, the “MIC (Minimum Inhibitory Concentration)” value [11] was 2 µg/mL and the “MIC (Minimum Inhibitory Concentration)” value ([3]; 37° C., 4 days) was 1024 µg/mL. For the same molecule, the “MCC (Minimum Cidal Concentration)” value [12] was 64 µg/mL, the acquisition of tolerance (Staphylococcus aureus; 10 passages) was “highly induced the tolerance” and the MIC after passages (Staphylococcus aureus; 10 passages in medium containing GM) was “about 1000 μg/ml”. The “MCC (Minimum Cidal Concentration)” value [13] was 64 µg/mL, the “MIC (Minimum Inhibitory Concentration)” value [14] was 2 µg/mL and the “MIC (Minimum Inhibitory Concentration)” value [15] was 16 µg/mL.
